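Test compounds were applied to cells in 96-well plates for 48 hours at 5 doses. GI50 is the concentration that inhibits growth by half. TGI: concentration producing complete growth inhibition.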
Assays:
Assay in all cases: inhibition of tumour cell growth, NCI panel, 48 h
U251 CNS = system: U251 CNS
A498 renal = system: A498 renal
SW-620 colon = system: SW-620 colon
MCF7 breast = system: MCF7 breast
OVCAR-3 ovarian = system: OVCAR-3 ovarian
MALME-3M melanoma = system: MALME-3M melanoma
BT-549 breast = system: BT-549 breast
EKVX NSCLC = system: EKVX NSCLC
HCT-15 colon = system: HCT-15 colon
PC-3 prostate = system: PC-3 prostate

Row | SMILES | TGI (U251 CNS) [nM] | TGI (A498 renal) [nM] | TGI (SW-620 colon) [nM] | TGI (MCF7 breast) [nM] | TGI (OVCAR-3 ovarian) [nM] | TGI (MALME-3M melanoma) [nM] | TGI (BT-549 breast) [nM] | TGI (EKVX NSCLC) [nM] | TGI (HCT-15 colon) [nM] | TGI (PC-3 prostate) [nM] | GI50 (U251 CNS) [nM] | GI50 (A498 renal) [nM] | GI50 (SW-620 colon) [nM] | GI50 (MCF7 breast) [nM] | GI50 (OVCAR-3 ovarian) [nM] | GI50 (MALME-3M melanoma) [nM] | GI50 (BT-549 breast) [nM] | GI50 (EKVX NSCLC) [nM] | GI50 (HCT-15 colon) [nM] | GI50 (PC-3 prostate) [nM]
1 | O=P1(NCCCl)OCCC(OO)N1CCCl (stereo not given) | > 100000 | > 93300 | 30500 | > 100000 | 53000 | 31700 | > 100000 | > 100000 | 33900 | > 100000 | – | – | – | – | – | – | – | – | – | –
2 | CC(NC(=O)C1(N)CCCC1)C(=O)O (stereo not given) | > 100000 | > 100000 | > 100000 | > 100000 | > 100000 | > 100000 | > 100000 | > 100000 | > 100000 | > 100000 | – | – | – | – | – | – | – | – | – | –
3 | COc1cc(Nc2nccc(-c3cnn4ncccc34)n2)cc(OC)c1 | 2460 | 183 | 4780 | 200 | 822 | 1260 | 2190 | 4960 | > 5170 | 2740 | 75 | 57.6 | 75.8 | 52.1 | 50.9 | 132 | 89.3 | 113 | 88.9 | 84.3
4 | COc1ccc2nc3c(cc2c1)C(=O)CC(C(F)(F)F)C3 (stereo not given) | > 100000 | 1550 | > 100000 | > 100000 | 6890 | > 100000 | > 100000 | > 100000 | > 100000 | > 100000 | 5820 | 278 | 2680 | 3330 | 1650 | 2570 | 3100 | 4460 | 1280 | 1080

— PubChem BioAssay (NCI)
